The values below come from patent US9179678B2, “Substituted [1,2,4]triazoles and substituted tetrazoles as herbicides” (SYNGENTA LIMITED, priority 2012, dated 2015).

Type in all cases: in vivo
In assay [1] the test system is Alopecurus myosuroides (ALOMY). In words: Post-emergence glasshouse herbicide test. The note with it: POST Application, 1000 g/h, after 13 days. The method, then:
(§1) Seeds of a variety of test species are sown in standard soil in pots (Alopecurus myosuroides (ALOMY), Setaria faberi (SETFA), Echinochloa crus-galli (ECHCG), Solanum nigrum (SOLNI), Amaranthus retoflexus (AMARE), Ipomoea hederacea (IPOHE)). After cultivation for one day (pre-emergence) or after 8 days cultivation (post-emergence) under controlled conditions in a glasshouse (at 24/16° C., day/night; 14 hours light; 65% humidity), the plants are sprayed with an aqueous spray solution derived from the formulation of the technical active ingredient in acetone/water (50:50) solution containing 0.5% Tween 20 (polyoxyethelyene sorbitan monolaurate, CAS RN 9005-64-5). Compounds ae applied at 1000 g/h. The test plants are then grown in a glasshouse under controlled conditions in a glasshouse (at 24/16° C., day/night; 14 hours light; 65% humidity) and watered twice daily. After 13 days for pre and post-emergence, the test is evaluated for the percentage damage caused to the plant. The biological activities are shown in the following table on a five point scale (5=80-100%; 4=60-79%; 3=40-59%; 2=20-39%; 1=0-19%).

Assay [2] deals with Amaranthus retoflexus (AMARE). In words: Post-emergence glasshouse herbicide test. The note with it: POST Application, 1000 g/h, after 13 days. Here is the method:
as §1

Assay [3] concerns Echinochloa crus-galli (ECHCG). As to the kind of experiment: Post-emergence glasshouse herbicide test. The conditions noted are these: POST Application, 1000 g/h, after 13 days. The method, then: as §1
Assay [4] relates to Ipomoea hederacea (IPOHE). As to the kind of experiment: Post-emergence glasshouse herbicide test. The conditions noted are these: POST Application, 1000 g/h, after 13 days. The method, then: as §1
The subject of assay [5] is Solanum nigrum (SOLNI). In words: Post-emergence glasshouse herbicide test. The conditions noted are these: POST Application, 1000 g/h, after 13 days. The method, then: as §1
In assay [6] the test system is Setaria faberi (SETFA). As to the kind of experiment: Post-emergence glasshouse herbicide test. The conditions noted are these: POST Application, 1000 g/h, after 13 days. The method, then:
as §1, with “Compounds ae applied at 1000 g/h.” left out

Assay [7] concerns Alopecurus myosuroides (ALOMY). As to the kind of experiment: Pre-emergence glasshouse herbicide test. The conditions noted are these: PRE Application, 1000 g/h, after 13 days. The method, then: as §1
The test system of assay [8] is Amaranthus retoflexus (AMARE). In words: Pre-emergence glasshouse herbicide test. The note with it: PRE Application, 1000 g/h, after 13 days. The method, then:
as §1

Assay [9] concerns Echinochloa crus-galli (ECHCG). As to the kind of experiment: Pre-emergence glasshouse herbicide test. The note with it: PRE Application, 1000 g/h, after 13 days. The method, then: as §1
The subject of assay [10] is Ipomoea hederacea (IPOHE). As to the kind of experiment: Pre-emergence glasshouse herbicide test. The conditions noted are these: PRE Application, 1000 g/h, after 13 days. Here is the method: as §1
Assay [11] relates to Setaria faberi (SETFA). As to the kind of experiment: Pre-emergence glasshouse herbicide test. The note with it: PRE Application, 1000 g/h, after 13 days. Here is the method: as §1
For assay [12], the system named is Solanum nigrum (SOLNI). In words: Pre-emergence glasshouse herbicide test. The note with it: PRE Application, 1000 g/h, after 13 days. The method, then: as §1

With `Cn1nnnc1NC(=O)c1cc2cccnc2n(C)c1=O` [Compound 1.001], the “percentage damage caused to the plant, ALOMY” value in [1] and in assay [7] was 1 (1=0-19%) throughout. Also, the “percentage damage caused to the plant, AMARE” value in [2] was 3 (3=40-59%); in assay [8], 2 (2=20-39%). Further, the “percentage damage caused to the plant, ECHCG” value in assay [3] is 3 (3=40-59%); in [9], 1 (1=0-19%). Further, the “percentage damage caused to the plant, IPOHE” value in assay [4] was 2 (2=20-39%); in assay [10], 1 (1=0-19%). The “percentage damage caused to the plant, SOLNI” value is reported as 5 (5=80-100%) with Solanum nigrum (SOLNI) [5] and 2 (2=20-39%) with Solanum nigrum (SOLNI) [12]. In addition, the “percentage damage caused to the plant, SETFA” value with Setaria faberi (SETFA) [6] and in the assay with Setaria faberi (SETFA) [11] was 1 (1=0-19%) each time.

As to `Cn1nnnc1NC(=O)c1cc2cnc(Cl)cc2n(-c2ccccc2)c1=O` [Compound 2.001], the “percentage damage caused to the plant, ALOMY” value in assay [1] and in [7] was 1 (1=0-19%) in each case. For the same compound, the “percentage damage caused to the plant, AMARE” value in [2] and in assay [8] was 5 (5=80-100%) each time. Besides, the “percentage damage caused to the plant, ECHCG” value in [3] and in assay [9] was 1 (1=0-19%) throughout. For the same compound, the “percentage damage caused to the plant, IPOHE” value is on record as 5 (5=80-100%) in assay [4] and 2 (2=20-39%) in [10]. The “percentage damage caused to the plant, SOLNI” value is 5 (5=80-100%) in the assay on Solanum nigrum (SOLNI) [5] and 4 (4=60-79%) in the assay on Solanum nigrum (SOLNI) [12]. In addition, the “percentage damage caused to the plant, SETFA” value in the assay on Setaria faberi (SETFA) [6] and in the assay with Setaria faberi (SETFA) [11] was 1 (1=0-19%) throughout.

For the compound `CCn1c(=O)c(C(=O)Nc2nnnn2C)cc2cnc(Cl)cc21` [Compound 2.002], the “percentage damage caused to the plant, ALOMY” value in assay [1] and in assay [7] was 1 (1=0-19%) each time. For the same compound, the “percentage damage caused to the plant, AMARE” value in assay [2] and in [8] was 5 (5=80-100%) each time. Also, the “percentage damage caused to the plant, ECHCG” value in [3] and in [9] was 2 (2=20-39%) throughout. Also, the “percentage damage caused to the plant, IPOHE” value is 5 (5=80-100%) in assay [4] and 3 (3=40-59%) in assay [10]. The “percentage damage caused to the plant, SOLNI” value is reported as 5 (5=80-100%) in the assay on Solanum nigrum (SOLNI) [5] and 4 (4=60-79%) with Solanum nigrum (SOLNI) [12]. Also, the “percentage damage caused to the plant, SETFA” value in the assay on Setaria faberi (SETFA) [6] and with Setaria faberi (SETFA) [11] was 1 (1=0-19%) in each case.

Take `CCn1c(=O)c(C(=O)Nc2nnnn2C)cc2cnccc21` [Compound 2.003]: the “percentage damage caused to the plant, ALOMY” value in assay [1] and in assay [7] was 1 (1=0-19%) throughout. Also, the results for the “percentage damage caused to the plant, AMARE” value in assay [2] and in [8] were 3 (3=40-59%) and 1 (1=0-19%), respectively. The “percentage damage caused to the plant, ECHCG” value in assay [3] and in assay [9] was 1 (1=0-19%) throughout. Also, the “percentage damage caused to the plant, IPOHE” value in assay [4] was 2 (2=20-39%); in [10], 1 (1=0-19%). Also, the entries for the “percentage damage caused to the plant, SOLNI” value in the assay on Solanum nigrum (SOLNI) [5] and in the assay on Solanum nigrum (SOLNI) [12] were 3 (3=40-59%) and 1 (1=0-19%), respectively. Moreover, the “percentage damage caused to the plant, SETFA” value in the assay with Setaria faberi (SETFA) [6] and with Setaria faberi (SETFA) [11] was 1 (1=0-19%) in each case.
